The text below walks through data of patent US9758527B2, “Cyclohexene derivative, preparation method therefor, and pharmaceutical composition for preventing or treating metabolic diseases, containing same as active ingredient” (HYUNDAI PHARM CO., LTD., priority 2014, dated 2017).

Each structure is given as a SMILES string. Read-outs that look alike come from different tables or passages of the source.

Series [1] addresses T1, G protein-coupled receptor 119 (GPR-119) (Mesocricetus auratus, UniProt A0A1U8CD06).
T1 construct: hamster-derived β-cells containing G protein-coupled receptor 119 (GPR-119), HIT-T15 cells; host or cells: HIT-T15 (hamster pancreatic β-cells)
T1 sequence (A0A1U8CD06 1-334): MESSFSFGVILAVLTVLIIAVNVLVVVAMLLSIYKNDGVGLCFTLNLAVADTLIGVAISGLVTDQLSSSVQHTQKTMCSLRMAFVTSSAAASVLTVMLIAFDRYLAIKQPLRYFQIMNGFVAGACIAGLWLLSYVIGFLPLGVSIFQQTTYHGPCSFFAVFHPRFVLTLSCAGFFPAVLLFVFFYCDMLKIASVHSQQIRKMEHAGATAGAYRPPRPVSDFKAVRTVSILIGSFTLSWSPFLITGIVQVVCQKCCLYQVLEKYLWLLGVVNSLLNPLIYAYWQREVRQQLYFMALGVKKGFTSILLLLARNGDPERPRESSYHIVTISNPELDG
Briefly: Evaluation of cAMP activity in HIT-T15 cells (HTRF cAMP dynamic kit). The format is cell-based, hamster. As to conditions: cAMP activation. The procedure, abridged:
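HIT-T15 cells, 60,000/well, treated next day with compound at six concentrations ([…]) for 1 h at 37° C. Lysate cAMP quantified by HTRF competitive immunoassay (D2-cAMP, cryptate anti-cAMP); activity taken as change in FRET signal relative to DMSO.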
For orientation: In TR-FRET formats the signal depends on donor and acceptor labels being close together.

Another series concerns blood glucose level. Briefly: Oral glucose tolerance test (OGTT) in high-fat diet model. The format is in vivo. As to conditions: Mus musculus, 2 h; hypoglycemic level; 20 mg/kg oral, glucose 2 g/kg oral after 30 minutes; read-out: % AUC. As to the method: To evaluate in vivo effective effects of the cyclohexene derivatives according to the present invention, experiments were carried out, as follows.
Specifically, male C57BL/6J (C57 black 6) […] (8 to 10 weeks old) in a high-fat diet model were acclimated for at least 7 days, and only healthy rat populations were selected and subjected to an oral glucose tolerance test (OGTT). The rats were fasted for 12 to 15 hours, and then randomly divided into groups with five rats per group. Thereafter, each of the compounds of Examples 1, 14, 48, 69, 80, 118, 139, 147, 148, 169, 190, 199, 200, 204, 227, and Comparative Examples 1 and 2 according to the present invention was administered to the rats at a dose of 20 mg/kg. In this case, a vehicle (0.5%, carboxymethyl cellulose (CMC)) was administered as an untreated group, and the dose of the compound administered together with the vehicle was orally administered at 10 ml/kg. After 30 minutes of administration, glucose (2 g/kg) was orally administered at a dose of 10 ml/kg. A blood glucose level was measured using an Accu-Chek Active Strip (Rosche Diagnostic Co.). In this case, the glucose level in blood collected via caudal venipuncture was measured at time points of −30, 0, 20, 40, 60, and 120 minutes after glucose administration.
In Table 3, the unit “% AUC (area under the curve)” represents a hypoglycemic level.

Series [2] is described as follows: Weight change in diet-induced obesity (DIO) rat model, 4-week administration. Type of series: in vivo, male Sprague Dawley (SD) rats. The settings on record: DIO rats, oral, 10, 20, and 50 mg/kg, 4 weeks. As to the method:
To simultaneously evaluate both the weight-loss and hypoglycemic effects of the cyclohexene derivative according to the present invention, experiments were carried out, as follows.
Specifically, male Sprague Dawley (SD) rats (approximately 4 weeks old) in a diet-induced obesity model were fed with a high-fat diet (Lab. Diet Co.) for approximately 10 weeks to induce high-fat diet-induced obesity (DIO). The rats undergoing the high-fat diet were randomly selected, and divided into groups (n=8) for respective administrations. The compounds of Comparative Examples 3 and 4 and Examples 48 and 119 were administered to the divided DIO rats each group for 4 weeks.
The weights of the DIO rats were measured twice a week during a period of administration of 4 weeks to record a change in the weights. At the end of the 4-week period of administration, a hypoglycemic effect was evaluated using an oral glucose tolerance test (OGTT), as follows.
FIG. 1 is a graph determining the changes in weights of rats after compounds of Example 48 and Comparative Examples 3 and 4 according to the present invention are administered to a diet-induced obesity (DIO) rat model for 4 weeks (In FIG. 1, the term “untreated group (Vehicle)” represents an untreated group in a high-fat DIO rat model; and the term “Lean” represents an untreated group in a normal SD rat model rather than a disease model).

Another series has as its system NCI-H716 cells. Kind of series: Promotion of glucagon-like peptide-1 (GLP-1) secretion (ELISA). The format is cell-based, human. As to conditions: NCI-H716 cells, 1, 10 and 30 μM-treated groups. On the procedure: To evaluate an effect of the cyclohexene derivative according to the present invention on promotion of glucagon-like peptide-1 (GLP-1) secretion, experiments were carried out, as follows.
NCI-H716 cells that were human enterocytes were plated on 12 wells at 1×10^6 cells per well. After 48 hours, the cells were starved in serum-free media for 2 hours, and treated with a varying concentration of siptagliptin that was a dipeptidyl peptidase-IV (DPP-IV) inhibitor, and the compounds of Comparative Example 1 (1, 10, 30 μM), Comparative Example 5 (10 μM), Example 48 (1, 10, 30 μM), and Example 291 (1, 10, 30 μM). After an hour, supernatants are recovered to determine an amount of the secreted GLP-1 peptide. The GLP-1 measurement was performed using an enzyme-linked immunosorbent assay (ELISA; Millipore, EGLP-35K), and the amount of the secreted GLP-1 peptide was indicated by the unit “pM”.
FIG. 3 is graph plotted for amounts of secreted GLP-1 when NCI-H716 cells that are human enterocytes are treated with the compounds of Comparative Examples 1 and 5 and Example 48 according to the present invention.
(In general: ELISA stands for enzyme-linked immunosorbent assay.)

A short description of another series: in vivo. The settings on record: female, Ihara's cataract rats (ICR), rat, po. On the procedure: To evaluate acute toxicity of the cyclohexene derivative according to the present invention, experiments were carried out, as follows.
Five 7-week-old female Ihara's cataract rats (ICRs) were supplied by Nara Biotech Co. Ltd., housed in a breeding farm, and acclimated to new environments while being fed with general solid feeds and water. When the rats were 8 weeks old, experiments were carried out. Environmental conditions were maintained constant: a set temperature of 23±3° C., a humidity of 55±15%, an illuminance of 150 to 300 Lux, a ventilation rate of 10 to 20 times/hour, and a lighting time of 12 hours (light-dark cycle: lighting at 8 a.m. and lights-out at 8 p.m.). As the feeds, solid feeds for laboratory animals (5L79 Lab Diet, Purina Mills, Richmond, Ind., USA), which had been sterilized by exposure to radiation, were provided by Orientbio Inc. so that rats were allowed to freely consume the solid feeds. As the water, running water was disinfected using a UV sterilizer and an ultra-filtration system, and then provided o that rats were allowed to freely drink the water in a water bottle. Analyses of contaminants in the water and feeds were carried out according to the ChemOn Inc.'s standard operating procedure (SOP). […]

Take `CC(C)c1noc(N2CCC(COc3ccc(C4=CCC(C(=O)N5CC[C@@H](O)C5)CC4)cc3)CC2)n1` (stereo partly drawn) [Example 48, ((R)-3-hydroxypyrrolidin-1-yl)(4-(4-((1-(3-isopropyl-1,2,4-oxadiazol-5-yl)piperidin-4-yl)methoxy)phenyl)cyclohex-3-enyl)methanone]: the EC50 is 35 nM in series [1] (1 h at 37° C., six concentrations, read-out: EC50) and at most 50 nM in series [1] (read-out: EC50 value). In addition, the inhibition in vivo at 20 mg/kg in the series with blood glucose level was found to be 21.2%. In addition, in series [2], the weight-loss effect result was “persistent weight loss was observed for 4 weeks”. The “GLP-1 secretion compared with Comparative Example 1” value with NCI-H716 cells is recorded as “induced GLP-1 secretion to a higher level than that of Comparative Example 1”. The same compound gave a median lethal dose (LD50) in the series “in vivo” of at least 2000 mg/kg.

In general, EC50 refers to the concentration giving half of the maximal effect. Broadly, the LD50 is the dose expected to kill half of the subjects tested.
